The source of these data is patent US8575091B1, “Amylin analogues and pharmaceutical compositions thereof” (Novo Nordisk A/S, priority 2012, dated 2013).

In general, EC50 refers to the concentration at which the effect is half-maximal. What is called IC50 is the concentration that inhibits the measured activity by half.

SMILES strings stand for the structures. Numbered stars: 1 amine (or outer) side, 2 acyl side, 3 side chain; on linkers, the order of the positions; unused ones are H or OH. Bridge positions count the residues as written; N and C are the ends. Side chains are listed from the residue outwards. Peptide text beside a SMILES is read from it. * marks the point of attachment. C20 diacid = O=C(O)CCCCCCCCCCCCCCCCCCC(=O)*; γGlu = O=C(O)[C@H](CCC(=O)[*:2])N[*:1]

Assay [1] concerns the target T1, human amylin receptor (amylin 3(a) receptor: human calcitonin receptor + RAMP-3) (Homo sapiens, UniProt O60896+P30988).
T1 construct: expressed in transfected cells
T1 sequence (P30988 25-474): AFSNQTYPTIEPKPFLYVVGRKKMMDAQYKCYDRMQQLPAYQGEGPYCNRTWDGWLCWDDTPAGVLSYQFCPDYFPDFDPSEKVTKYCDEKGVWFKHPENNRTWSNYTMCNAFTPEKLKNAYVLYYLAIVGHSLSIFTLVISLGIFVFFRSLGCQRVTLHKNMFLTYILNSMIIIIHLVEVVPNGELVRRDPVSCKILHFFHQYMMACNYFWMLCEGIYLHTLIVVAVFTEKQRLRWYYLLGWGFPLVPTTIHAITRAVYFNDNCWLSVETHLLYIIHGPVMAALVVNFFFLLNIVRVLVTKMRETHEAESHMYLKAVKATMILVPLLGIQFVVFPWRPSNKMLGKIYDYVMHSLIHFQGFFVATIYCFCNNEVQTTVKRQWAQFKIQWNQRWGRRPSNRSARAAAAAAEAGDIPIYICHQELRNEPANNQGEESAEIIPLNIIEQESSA
T1 sequence (O60896 24-148 partner): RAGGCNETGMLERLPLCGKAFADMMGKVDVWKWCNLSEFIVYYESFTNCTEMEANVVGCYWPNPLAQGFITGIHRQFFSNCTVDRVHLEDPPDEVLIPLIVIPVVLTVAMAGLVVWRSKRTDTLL
Nature of the assay: Assay (II)a functional assay, human amylin receptor (CRE luciferase, BHK cells). The format is cell-based. To be noted: for EC50: functional assay, human amylin receptor, read-out: hAmylin-R funct. EC50.

The target of assay [2] is T2, human calcitonin receptor (Homo sapiens, UniProt P30988).
T2 construct: expressed in transfected cells
T2 sequence (P30988 25-474): T1 sequence (P30988 25-474)
Nature of the assay: Assay (II)a functional assay, human calcitonin receptor (CRE luciferase, BHK cells).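 Further: luminescence from a CRE-driven luciferase reporter, read by single photon counting after cells were exposed to test samples for 3 h at 37 °C under 5% CO2.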 To be noted: read-out: hCTR funct. EC50. The class given is cell-based.

The target in a further assay is T3, human amylin receptor (Homo sapiens, UniProt O60896+P30988).
T3 construct: expressed in transfected cells
T3 sequence (P30988 25-474): T1 sequence (P30988 25-474)
T3 sequence (O60896 24-148 partner): T1 sequence (O60896 24-148 partner)
Nature of the assay: Assay (V) binding to the human amylin receptor (SPA, 125I-rat amylin). To be noted: human amylin receptor membranes, SPA; read-out: hAmylin-R bind IC50. The gist of the method:
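IC50, taken as receptor affinity, came from one-site binding competition analysis of scintillation proximity counts. Amylin 3(a)/CRE-luc cell membranes (35 ng/μL final) were mixed with SPA beads (0.05 mg/well) in 50 mM Hepes pH 7.4 containing CaCl2, MgCl2, 0.1% OA and 0.02% Tween20.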

For another assay, the target named is T4, rat amylin receptor (Rattus norvegicus, UniProt P32214+Q9JJ73).
T4 construct: expressed in transfected cells; host or cells: BHK tk'ts 13 (transient, FuGENE 6), membranes
T4 sequence (P32214 25-479 isoform P32214-2 limits assumed): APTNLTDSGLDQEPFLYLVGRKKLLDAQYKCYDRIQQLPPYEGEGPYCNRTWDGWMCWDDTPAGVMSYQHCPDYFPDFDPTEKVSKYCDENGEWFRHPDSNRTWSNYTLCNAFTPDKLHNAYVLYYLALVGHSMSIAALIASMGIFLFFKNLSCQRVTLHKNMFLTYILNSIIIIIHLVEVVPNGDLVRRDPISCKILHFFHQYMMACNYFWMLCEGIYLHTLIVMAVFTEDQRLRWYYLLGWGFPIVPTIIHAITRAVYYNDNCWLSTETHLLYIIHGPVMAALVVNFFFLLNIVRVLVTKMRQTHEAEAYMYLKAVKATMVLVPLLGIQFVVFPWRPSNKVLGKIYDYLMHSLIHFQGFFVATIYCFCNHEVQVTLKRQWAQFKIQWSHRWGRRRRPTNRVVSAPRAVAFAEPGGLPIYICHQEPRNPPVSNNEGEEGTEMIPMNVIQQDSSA
T4 sequence (Q9JJ73 23-147 partner): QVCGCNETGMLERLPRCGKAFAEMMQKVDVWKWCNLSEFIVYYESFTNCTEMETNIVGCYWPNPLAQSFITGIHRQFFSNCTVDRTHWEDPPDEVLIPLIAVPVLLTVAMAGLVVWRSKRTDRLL
Briefly: Assay (VI) binding to the rat amylin receptor. To be noted: rCTR bind IC50 divided by rAmylin-R bind IC50. Put shortly: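 Binding as in the human amylin receptor binding assay, but with membranes from BHK tk'ts 13 cells transiently co-transfected with rat calcitonin receptor and rat RAMP 3 […]. Membranes were prepared from cells harvested about 48 hours after transfection.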

For assay [3], the target named is T2, human calcitonin receptor. Briefly: Assay (VII) binding to the human calcitonin receptor (SPA, 125I-Calcitonin).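 Further: cell membranes coupled to SPA beads, competitive displacement read by scintillation counting, IC50 derived from a one-site competition fit as a measure of receptor affinity.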 To be noted: read-out: hCTR bind IC50.
The next assay concerns Wistar rats. Briefly: Assay (XII) single subcutaneous administration, plasma calcium in rats. To be noted: for Plasma calcium red (%) 0-12 h: single s.c., maximal reduction 0-12 h, compared to vehicle; for suppression of plasma calcium level relative to vehicle: single subcutaneous, over 24 hours. The class given is in vivo, rat. How it is done:
Assay (XII)—Effect from Single Subcutaneous Administration of Analogue on Plasma Calcium in Rats
Male Wistar rats (Taconic Europe, ˜250 g at test date) were acclimatized to handling prior to the study. Rats were divided in groups of five and subcutaneously dosed with test compound at time=0. At time T=−15 min; 1 h, 2 h, 4 h, 7 h, 12 h, and 24 h a blood sample was obtained and heparin stabilized plasma was analysed for total calcium (Cobas, Hitachi). Data are illustrated in graphs as mean±SEM.

The test system of the next assay is Sprague-Dawley rats. Nature of the assay: Assay (XI) single subcutaneous administration, food intake monitored for 48 hours in rats. To be noted: single subcutaneous 30 nmol/kg. The class given is in vivo, rat. How it is done:
Assay (XI)—Effect from Single Subcutaneous Administration of Analogue on […] in Rats
Male Sprague-Dawley rats (Taconic Europe, ˜250 g at test date) were acclimatized to reversed day light cycle (lights on from 10 PM to 10 AM) and single housing in online food intake monitoring system (Ellegaard MBRose, Denmark) prior to study start. Rats were divided in groups of five and subcutaneously dosed with test compound (30 nmol/kg) and food intake was monitored for 48 hours hereafter. Data are illustrated in graphs as mean±SEM.

In the case of `CC[C@H](C)[C@H](NC(=O)[C@H](C)NC(=O)CNC(=O)[C@H](Cc1ccccc1)NC(=O)[C@H](CC(N)=O)NC(=O)[C@@H]1CCCN1C(=O)[C@H](CO)NC(=O)[C@H](CO)NC(=O)[C@H](Cc1c[nH]cn1)NC(=O)[C@H](CCCNC(=N)N)NC(=O)[C@H](CC(C)C)NC(=O)[C@H](Cc1ccccc1)NC(=O)[C@H](CCC(=O)O)NC(=O)[C@H](C)NC(=O)[C@H](CC(C)C)NC(=O)[C@H](CCCNC(=N)N)NC(=O)[C@H](CCC(N)=O)NC(=O)[C@@H](NC(=O)[C@H](C)NC(=O)[C@@H]1CSSC[C@H](NC(=O)[C@@H](N)CCCCNC(=O)CC[C@H](NC(=O)CC[C@H](NC(=O)CCCCCCCCCCCCCCCCCCC(=O)O)C(=O)O)C(=O)O)C(=O)N[C@@H](CC(N)=O)C(=O)N[C@@H]([C@@H](C)O)C(=O)N[C@@H](C)C(=O)N[C@@H]([C@@H](C)O)C(=O)N1)[C@@H](C)O)C(=O)N1CCC[C@H]1C(=O)N[C@@H](CO)C(=O)N[C@@H](CO)C(=O)N[C@H](C(=O)N[C@@H](CC(N)=O)C(=O)N[C@H](C(=O)NCC(=O)N1CCC[C@H]1C(=O)N[C@@H](Cc1c[nH]cn1)C(=O)N[C@H](C(=O)N[C@@H](Cc1ccc(O)cc1)C(N)=O)[C@@H](C)O)C(C)C)[C@@H](C)O` [Example 124] (H-K([γGlu-γGlu-C20 diacid])CNTATCATQRLAEFLRHSSPNFGAIPSSTNVGPHTY-NH2; disulfide 2-7), the figures for the EC50 in assay [1] and in assay [2] were 0.172 nM and 2.83 nM, respectively. The IC50 was determined as 0.377 nM on human amylin receptor and 10.3 nM in assay [3]. Besides, the “Ratio rCT/rAmylin binding” value on rat amylin receptor (Table 7b), at rat amylin receptor (Table 7c) and at rat amylin receptor was 73.0 throughout. Also, the “Plasma calcium red (%) 0-12 h” value is listed as 3% in the assay on Wistar rats (10 nmol/kg) and 11% in the assay on Wistar rats (30 nmol/kg).
Consider `CC[C@H](C)[C@H](NC(=O)[C@H](C)NC(=O)CNC(=O)[C@H](Cc1ccccc1)NC(=O)[C@H](CC(N)=O)NC(=O)[C@@H]1CCCN1C(=O)[C@H](CO)NC(=O)[C@H](CO)NC(=O)[C@H](Cc1c[nH]cn1)NC(=O)[C@H](CCCNC(=N)N)NC(=O)[C@H](CC(C)C)NC(=O)[C@H](Cc1ccccc1)NC(=O)[C@H](CCC(=O)O)NC(=O)[C@H](C)NC(=O)[C@H](CC(C)C)NC(=O)[C@H](CCCNC(=N)N)NC(=O)[C@H](CCC(N)=O)NC(=O)[C@@H](NC(=O)[C@H](C)NC(=O)[C@@H]1CSSC[C@H](NC(=O)[C@@H](N)CCCCNC(=O)CC[C@H](NC(=O)CC[C@H](NC(=O)CCCCCCCCCCCCCCCCCCC(=O)O)C(=O)O)C(=O)O)C(=O)N[C@@H](CC(N)=O)C(=O)N[C@@H]([C@@H](C)O)C(=O)N[C@@H](C)C(=O)N[C@@H]([C@@H](C)O)C(=O)N1)[C@@H](C)O)C(=O)N1CCC[C@H]1C(=O)N[C@@H](CO)C(=O)N[C@@H](CO)C(=O)N[C@H](C(=O)N[C@@H](CC(N)=O)C(=O)N[C@H](C(=O)NCC(=O)N1CCC[C@H]1C(=O)N[C@@H](CCCNC(=N)N)C(=O)N[C@H](C(=O)N[C@@H](Cc1ccc(O)cc1)C(N)=O)[C@@H](C)O)C(C)C)[C@@H](C)O` [Example 110] (H-K([γGlu-γGlu-C20 diacid])CNTATCATQRLAEFLRHSSPNFGAIPSSTNVGPRTY-NH2; disulfide 2-7), for which, in the assay with Sprague-Dawley rats, the “food intake monitored over 48 hours versus vehicle” value is recorded as “reduces food intake in rats”. For the same compound, in the assay with Wistar rats (30 nmol/kg), the “Plasma calcium red (%) 0-12 h” value came out at 8% and the “suppression of plasma calcium level relative to vehicle” value is “None of the example compounds at 30 nmol/kg trigger a notable suppression of the calcium level”.
For `CC[C@H](C)[C@H](NC(=O)[C@H](C)NC(=O)CNC(=O)[C@H](Cc1ccccc1)NC(=O)[C@H](CC(N)=O)NC(=O)[C@@H]1CCCN1C(=O)[C@H](CO)NC(=O)[C@H](CO)NC(=O)[C@H](Cc1c[nH]cn1)NC(=O)[C@H](CCCNC(=N)N)NC(=O)[C@H](CC(C)C)NC(=O)[C@H](Cc1ccccc1)NC(=O)[C@H](CCC(=O)O)NC(=O)[C@H](C)NC(=O)[C@H](CC(C)C)NC(=O)[C@H](CCCNC(=N)N)NC(=O)[C@H](CCC(N)=O)NC(=O)[C@@H](NC(=O)[C@H](C)NC(=O)[C@@H]1CSSC[C@H](NC(=O)[C@@H](N)CCCCNC(=O)CC[C@H](NC(=O)CCCCCCCCCCCCCCCCCCC(=O)O)C(=O)O)C(=O)N[C@@H](CC(N)=O)C(=O)N[C@@H]([C@@H](C)O)C(=O)N[C@@H](C)C(=O)N[C@@H]([C@@H](C)O)C(=O)N1)[C@@H](C)O)C(=O)N1CCC[C@H]1C(=O)N[C@@H](CO)C(=O)N[C@@H](CO)C(=O)N[C@H](C(=O)N[C@@H](CC(N)=O)C(=O)N[C@H](C(=O)NCC(=O)N[C@@H](CO)C(=O)N[C@@H](CCCNC(=N)N)C(=O)N[C@H](C(=O)N[C@@H](Cc1ccc(O)cc1)C(N)=O)[C@@H](C)O)C(C)C)[C@@H](C)O` [Example 51] (H-K([γGlu-C20 diacid])CNTATCATQRLAEFLRHSSPNFGAIPSSTNVGSRTY-NH2; disulfide 2-7), the “Ratio hCT/hAmylin funct.” value in assay [1] (Table 6, human functional selectivity (hCTR EC50 / hAmylin-R EC50)) is 14.0; in assay [1] (Table 6a, human functional selectivity (hCTR EC50 / hAmylin-R EC50), at least 5) it was 14.0; in assay [1] (Table 6i, hCTR funct. EC50 / hAmylin-R funct. EC50) it was 14.0; in assay [1] (Table 6j, hCTR funct. EC50 / hAmylin-R funct. EC50), 14.0; in assay [1] (Table 6k, hCTR funct. EC50 / hAmylin-R funct. EC50), 14.0. In addition, the EC50 in assay [1] came to 0.372 nM; in assay [2] it was 5.22 nM. Also, the IC50 is 0.828 nM at human amylin receptor and 31.1 nM in assay [3]. Also, the “Plasma calcium red (%) 0-12 h” value in the assay with Wistar rats (30 nmol/kg) turned out to be 10%. Further, the “suppression of plasma calcium level relative to vehicle” value in the assay with Wistar rats (30 nmol/kg) is “None of the example compounds at 30 nmol/kg trigger a notable suppression of the calcium level”.
